Results on 3 compounds are retold here after patent US11690810B2, “Combination treatment of bacterial infection” (The Chinese University of Hong Kong, priority 2018, dated 2023).

A value given as a limit tells only on which side of the number the result lay.

The test system of data set [1] is adherence of MRSA strain JE-2 to fibrinogen. The data set is described as follows: Fibrinogen-binding adherence assay (crystal violet). The data set is classed as cell-based, Staphylococcus aureus. To be noted: varying concentrations.
The test system of data set [2] is adherence of MRSA strain JE-2 to HaCat keratinocytes. The data set is described as follows: Bacterial adherence to HaCaT keratinocytes. The data set is classed as cell-based, Staphylococcus aureus. As to conditions: varying concentrations of baicalein.
The test system of data set [3] is internalization of MRSA strain JE-2 by HaCat keratinocytes. Put plainly: Internalization of S. aureus by HaCaT keratinocytes. The data set is classed as cell-based, Staphylococcus aureus.
For data set [4], the system named is bacterial aggregation of MRSA JE-2. The data set is described as follows: Aggregation assay of MRSA JE-2. To be noted: JE-2; varying concentrations. The data set is classed as cell-based, Staphylococcus aureus.
Data set [5] relates to S. aureus SA-APH2″-AAC6′ (APH2), resistant to gentamicin. Put plainly: MIC and checkerboard (FIC) assay. As to conditions: Staphylococcus aureus; for MIC99: read-out: MIC 99.9.
For data set [6], the system named is S. aureus SA-APH3′ (APH3), resistant to kanamycin. Put plainly: MIC and checkerboard (FIC) assay. To be noted: Staphylococcus aureus; for MIC99: read-out: MIC 99.9.
Data set [7] has as its system S. aureus SA-ANT4′ (ANT4), resistant to fusidic acid. The data set is described as follows: MIC and checkerboard (FIC) assay. To be noted: Staphylococcus aureus; for MIC99: read-out: MIC 99.9.
Data set [8] relates to S. aureus SA-RN4220-pUL5054 (RN4220). The data set is described as follows: MIC and checkerboard (FIC) assay. As to conditions: Staphylococcus aureus; for MIC99: read-out: MIC 99.9.
The subject of data set [9] is S. aureus SA-1199B (NorA efflux pump overexpressed). The data set is described as follows: MIC and checkerboard (FIC) assay. As to conditions: for MIC99: read-out: MIC 99.9.
For the next data set, the system named is MRSA SA-ST239. Put plainly: MIC and checkerboard (FIC) assay. As to conditions: Staphylococcus aureus, MRSA; for MIC99: read-out: MIC 99.9.
The subject of data set [10] is S. aureus ATCC25923 (methicillin sensitive). The data set is described as follows: MIC and checkerboard (FIC) assay. To be noted: Staphylococcus aureus; for MIC90: ATCC25923; for MIC99: ATCC25923, read-out: MIC 99.9.
The subject of data set [11] is panel of laboratory MRSA strains. The data set is described as follows: MIC and combination tests, panel of laboratory strains. As to conditions: tanshinone highest tested concentration 128 μg/ml.
For data set [12], the system named is NorA overexpressed S. aureus. To be noted: NorA overexpressed S. aureus, cited from earlier work.
A short description of another data set: Solubility. To be noted: MIC test medium.

What is called MIC90 is an inhibitory concentration at the 90% level, which refers to growth in some studies and to a panel of isolates in others. Usually MIC stands for the least concentration at which growth counts as inhibited. As to `O=c1cc(-c2ccccc2)oc2cc(O)c(O)c(O)c12` [Baicalein, 5,6,7-trihydroxyflavone], the fibrinogen-binding adherence entry in [1] is on record as “minimal reduction in adherence”. In [2], the “average decrease in the adherence of the WT strain to HaCaT cells” value is recorded as 3.5 fold. Moreover, the “decrease in the internalization as compared to the WT strain” value in data set [3] (4 μg/ml (baicalein)) is recorded as 2.7 fold. In addition, the “internalization lower as compared to the mutant ΔSrtA” value in data set [3] (64 μg/ml of baicalein) is recorded as 1.9 fold. Further, the “reduction in internalization as compared to the WT strain” value in data set [3] (64 μg/ml of baicalein) is listed as 5 fold. Besides, the bacterial aggregation result in [4] is “reduced”. For the same compound, the MIC90 in [5] was 128 µg/mL; in data set [6], 64 µg/mL; in data set [7], 128 µg/mL; in data set [8], 64 µg/mL; in data set [9] (Staphylococcus aureus) it was 128 µg/mL; in the data set with MRSA SA-ST239, 128 µg/mL. Besides, in data set [10], the MIC90 is 128 µg/mL. Further, the MIC99 (in data set [5]; in [6]; in data set [7]; in [8]; in [9] (Staphylococcus aureus); in the data set with MRSA SA-ST239) was greater than 512 µg/mL in each case. For the same compound, the MIC99 in [10] was greater than 512 µg/mL. Also, the FIC in [9] (1199B, Baicalein with ECG) is recorded as 0.0625. For the same compound, the MIC combine in data set [9] (1199B, Baicalein with ECG) turned out to be 8 µg/mL. Further, the MIC in data set [9] (Staphylococcus aureus, read-out: MIC alone, 1199B, Baicalein and ECG section) is 512 µg/mL. For the same compound, the “activity against the tested MRSA strains when used alone” value (“activity” for short) in [11] is listed as “relatively weak”.

With `COc1ccc2cc3[n+](cc2c1OC)CCc1cc2c(cc1-3)OCO2` [Berberine], the fibrinogen-binding adherence entry in data set [1] is given as “dose-dependent reduction of adherence”. Further, the bacterial aggregation entry in data set [4] is reported as “reduced”. For the same compound, the “antimicrobial action (MIC) potentiated” value in data set [12] (with multidrug pump inhibitor 5′-methoxyhydnocarpin) was 2 µg/mL. Moreover, the “antimicrobial action (MIC) alone” value in data set [12] (without pump inhibitor) is 32 µg/mL. Besides, the MIC90 in data set [5] amounted to 256 µg/mL; in data set [6], 128 µg/mL; in data set [7], 256 µg/mL; in data set [8], 256 µg/mL; in [9] (Staphylococcus aureus), 256 µg/mL; with MRSA SA-ST239, 256 µg/mL. Also, the MIC90 in [10] was 256 µg/mL. Also, the MIC99 (in data set [5]; in data set [6]; in [7]; in data set [8]; in data set [9] (Staphylococcus aureus); in the data set with MRSA SA-ST239) was greater than 512 µg/mL in each case. In data set [10], the MIC99 was greater than 512 µg/mL. Besides, in data set [11], the “activity” value is reported as “relatively weak”.

In the case of `Cc1coc2c1C(=O)C(=O)c1c-2ccc2c(C)cccc12` [Tanshinone, tanshinone], the solubility result in “Solubility” is “poor”. Further, the MIC90 (in data set [5]; in data set [6]; in data set [7]; in data set [8]; in data set [9] (Staphylococcus aureus); in the data set with MRSA SA-ST239) was greater than 128 µg/mL each time. The MIC90 in data set [10] is greater than 128 µg/mL. Moreover, the MIC99 (in data set [5]; in data set [6]; in [7]; in data set [8]; in [9] (Staphylococcus aureus); in the data set with MRSA SA-ST239) was greater than 128 µg/mL throughout. In addition, the MIC99 in data set [10] was greater than 128 µg/mL. Also, in data set [11], the “activity” value is “ineffective”.
